Laboratory results from patent publication US8574831B2, “Mutational profiles in HIV-1 reverse transcriptase correlated with phenotypic drug resistance” (Virco N.V., priority 2000, dated 2013).

Test system: HIV with mutations in the HIV protease sequence
Assay: Phenotypic fold resistance to protease inhibitors, protease mutations 84A/84L/84C/54M/54L/54V in a background (Examples 8-13)
Type: cell-based, HIV-1
Procedure: As is the case with the genotyping assays, the recombinant virus assay starts with the amplification of viral target sequences by means of PCR. The amplicons are incorporated into a proviral laboratory clone with sequences homologous to those present in the amplicon deleted. This generates a stock of chimeric viruses. The viruses are tested for their ability to grow in the presence of different concentrations of drugs. Results are obtained by calculating IC50 values for each inhibitor and by reporting the results as IC50 values, expressed in μM concentrations, or by computing the ratio of the IC50 values found for the chimeric virus to the IC50 values found for a wild type susceptible laboratory virus tested in parallel. In the latter case, resistance is expressed as “fold-resistance” compared to a wild-type susceptible HIV-1 strain. In order to meet the need for high-volume testing and a short turn-around time for an individual test, the latest generation of phenotyping assays has undergone further modifications. The use of reporter gene systems for susceptibility testing allows the implementation of laboratory automation and standardization. See Pauwels, et al., J. Virol. Methods 20, 309-321 (1998); Paulous, S., et al., International Workshop on HIV Drug Resistance, Treatment Strategies and Eradication, St. Petersburg, Fla., USA. Abstr. 46 (1997); and Deeks, S. G., et al., 2nd International Workshop on HIV Drug Resistance and Treatment Strategies, Lake Maggiore, Italy. Abstr. 53 (1998).
The ANTIVIROGRAM® assay (Virco) (WO 97/27480) is based on homologous recombination of patient derived HIV-1 gag/PR/RT sequences into a proviral HIV-1 clone correspondingly deleted for the gag/PR/RT sequences. See Pauwels, et al., J. Virol. Methods 20, 309-321 (1998). A similar assay (Phenosense ViroLogic) is based on enzymatic ligation of patient-derived PR/RT sequences into a correspondingly deleted proviral vector carrying an indicator gene, luciferase, inserted in the deleted HIV-1 envelope gene. See Deeks, S. G., et al., 2nd International Workshop on HIV Drug Resistance and Treatment Strategies, Lake Maggiore, Italy. Abstr. 53 (1998). Hertogs et al. Antimicrob. Agents Chemother. 44(3) 568-573 (2000) the disclosures of which are herein incorporated by reference.
The methods of monitoring HIV-1 drug resistance, may also be used in combination with phenotypic drug resistance testing of viral isolates. For example, in one embodiment, a phenotypic test is utilized that is based upon the construction of chimeric HIV-1 strains composed of the protease (PR) and reverse transcriptase (RT) gene sequences which are isolated and amplified from the patient viral RNA. These strains may subsequently be recombined inside CD4+ T cells with a standard laboratory isogenic (HXB2) HIV-1 DNA construct from which the PR/RT gene sequences were deleted. The recombinant strains may then be grown in the presence of the above-mentioned antiviral drugs and the susceptibility of the viral isolates may be expressed as fold-change value of the IC50 of the drug on the patient isolates over the IC50 of the drug on a wild-type laboratory reference strain.

SMILES: Cc1c(O)cccc1C(=O)N[C@@H](CSc1ccccc1)[C@H](O)CN1C[C@H]2CCCC[C@H]2C[C@H]1C(=O)NC(C)(C)C [Nelfinavir, nelfinavir]
- mean fold increase in resistance (Table 9 #1, protease genotype WT): 0.7 fold
- mean fold increase in resistance (Table 9 #2, protease genotype 10I): 1 fold
- mean fold increase in resistance (Table 9 #3, protease genotype 46I): 1.5 fold
- mean fold increase in resistance (Table 9 #4, protease genotype 46I + 84V): 5.6 fold
- mean fold increase in resistance (Table 9 #5, protease genotype 46I + 84A): 61.9 fold
- mean fold increase in resistance (Table 9 #6, protease genotype 10I + 46I): 0.8 fold
- mean fold increase in resistance (Table 9 #7, protease genotype 10I + 46I + 84V): 3.1 fold
- mean fold increase in resistance (Table 9 #8, protease genotype 10I + 46I + 84A): 43.9 fold
- mean fold increase in resistance (Table 9 #9, protease genotype 10L/I + 46I + 84A): 56.2 fold
- mean fold increase in resistance (Table 9 #10, protease genotype 10I + 46I + 84A): 36.9 fold
- mean fold increase in resistance (Table 9 #11, protease genotype 46I + 71V): 1 fold
- mean fold increase in resistance (Table 9 #12, protease genotype 46I + 71V + 84V/I): 0.7 fold
- mean fold increase in resistance (Table 9 #13, protease genotype 46I + 71V + 84A): 59.9 fold
- mean fold increase in resistance (Table 9 #14, protease genotype 10F + 46I + 71V): 45.2 fold
- mean fold increase in resistance (Table 9 #15, protease genotype 10I + 46I + 71V + 84V): 57.1 fold
- mean fold increase in resistance (Table 9 #16, protease genotype 10I + 46I + 71V + 84A): 54.9 fold
- mean fold increase in resistance (Table 9 #17, protease genotype 10V + 46I + 71T + 84A): 51.2 fold
- mean fold increase in resistance (Table 9 #18, protease genotype 10I + 46I + 71V + 77I): 6.1 fold
- mean fold increase in resistance (Table 9 #19, protease genotype 10I + 46I + 71V + 77I + 84V): 2.8 fold
- mean fold increase in resistance (Table 9 #20, protease genotype 10I + 46I + 71V + 77I + 84A): 68.6 fold
- mean fold increase in resistance (Table 9 #21, protease genotype 10I + 33L/I + 46I + 71V + 77V/I + 84A): 63.1 fold
- mean fold increase in resistance (Table 10 #1, protease genotype 10I + 36I + 71V): 1.5 fold
- mean fold increase in resistance (Table 10 #2, protease genotype 10I + 36I + 71I + 84V): 0.8 fold
- mean fold increase in resistance (Table 10 #3, protease genotype 10I + 36I + 71I + 84L): 39.4 fold
- mean fold increase in resistance (Table 11 #1, protease genotype WT): 0.7 fold
- mean fold increase in resistance (Table 11 #2, protease genotype 84V): 0.9 fold
- mean fold increase in resistance (Table 11 #3, protease genotype 84C): 51.2 fold
- mean fold increase in resistance (Table 11 #4, protease genotype 10I): 1.0 fold
- mean fold increase in resistance (Table 11 #5, protease genotype 10I + 84V): 2.0 fold
- mean fold increase in resistance (Table 11 #6, protease genotype 10I + 84C): 61.9 fold
- mean fold increase in resistance (Table 11 #7, protease genotype 77I): 0.9 fold
- mean fold increase in resistance (Table 11 #8, protease genotype 77I + 84V): 2.8 fold
- mean fold increase in resistance (Table 11 #9, protease genotype 77I + 84C): 61.9 fold
- mean fold increase in resistance (Table 11 #10, protease genotype 77I + 84C): 38.2 fold
- mean fold increase in resistance (Table 11 #11, protease genotype 10I + 24I + 36I + 46I + 71V + 84C): 51.7 fold
- Fold change in IC50 (Table 12, V19263, genotype 77I): 0.9 fold
- Fold change in IC50 (Table 12, V20160, genotype WT): 0.7 fold
- Fold change in IC50 (Table 12, V021667, genotype 10I): 1.0 fold
- Fold change in IC50 (Table 12, V030496, genotype 10I + 77I): 0.7 fold
- Fold change in IC50 (Table 12, V048869, genotype 10I + 54M + 77I + 90M): 28.5 fold
- Fold change in IC50 (Table 12, V048872, genotype 33F + 54M + 77I + 90M): 7.4 fold
- Fold change in IC50 (Table 12, V048873, genotype 33F + 54M + 77I + 90M): 7.7 fold
- Fold change in IC50 (Table 12, V048877, genotype 10I + 33F + 77I + 90M): 9.4 fold
- Fold change in IC50 (Table 12, V048878, genotype 10I + 33F + 54M + 71V + 77I + 90M): 7.3 fold
- Fold change in IC50 (Table 12, V048879, genotype 10I + 33F + 54M + 71V + 77I + 90M): 45.7 fold
- Fold change in IC50 (Table 12, V048880, genotype 10I + 33F + 77I + 90M): 4.9 fold
- Fold change in IC50 (Table 12, V052940, genotype 71V): 0.6 fold
- Fold change in IC50 (Table 12, V052942, genotype 10I + 71V): 0.9 fold
- Fold change in IC50 (Table 12, V052943, genotype 10I + 90M): 2.2 fold
- Fold change in IC50 (Table 12, V052944, genotype 10I + 90M): 1.4 fold
- Fold change in IC50 (Table 12, V052945, genotype 77I + 90M): 3.0 fold
- Fold change in IC50 (Table 12, V052946, genotype 71V + 90M): 3.0 fold
- Fold change in IC50 (Table 12, V052947, genotype 10I + 77I + 90M): 8.2 fold
- Fold change in IC50 (Table 12, V052948, genotype 10I + 71V + 90M): 9.0 fold
- Fold change in IC50 (Table 12, V052949, genotype 10I + 71V + 77I + 90M): 8.6 fold
- Fold change in IC50 (Table 12, V052950, genotype 33F): 1.0 fold
- Fold change in IC50 (Table 12, V052951, genotype 33F + 77I): 5.2 fold
- Fold change in IC50 (Table 12, V052953, genotype 10I + 33F + 77I): 0.9 fold
- Fold change in IC50 (Table 12, V052954, genotype 33F + 77I + 90M): 5.9 fold
- Fold change in IC50 (Table 12, V052955, genotype 33F + 71V + 90M): 36.6 fold
- Fold change in IC50 (Table 12, V052977, genotype 10I + 33F + 54M): 3.8 fold
- Fold change in IC50 (Table 12, V052978, genotype 10I + 33F + 54M + 71V + 90M): 29.1 fold
- Fold change in IC50 (Table 12, V052979, genotype 10I + 54M): 3.8 fold
- Fold change in IC50 (Table 12, V052980, genotype 10I + 54M + 90M): 7.0 fold
- Fold change in IC50 (Table 12, V052981, genotype 10I + 54M + 71V + 90M): 8.7 fold
- Fold change in IC50 (Table 12, V052982, genotype 10I + 54M + 71V + 77I + 90M): 10.1 fold
- Fold change in IC50 (Table 12, V053832, genotype 10I + 33F): 1.6 fold
